# ChEMBL document CHEMBL1201862, “PubChem BioAssay data set” (2004)
# The source made the active and inactive calls.
# How the values were obtained:
# [1] = molecular target: T1, Polyadenylate-binding protein 1 (Homo sapiens, UniProt P11940); assay: MLLE domain peptide-binding blockers, IC50 – biochemical, fluorescence polarization, FITC-PAM2 peptide, dose response (AID 602259); type: functional; details: read-out: IC50_Mean
# Beta-galactosidase = Beta-galactosidase (Escherichia coli, UniProt Q8VNN2); assay: PubChem AID 485352; type: functional
# [2] = fluconazole-exposed Candida albicans growth modulators – fluorescence, retest, confirmation (AID 2467); type: functional, cell-based
# [3] = molecular target: T2, Type-1 angiotensin II receptor (Homo sapiens, UniProt P30556); assay: antagonism of angiotensin II type 1 receptor – cell-based, uHTS hits, selectivity assay for APJ receptor antagonist project, dose response (AID 463214); type: functional;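 note: antagonist potency against angiotensin II stimulated AT1 response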
# T2 sequence (P30556 whole entry): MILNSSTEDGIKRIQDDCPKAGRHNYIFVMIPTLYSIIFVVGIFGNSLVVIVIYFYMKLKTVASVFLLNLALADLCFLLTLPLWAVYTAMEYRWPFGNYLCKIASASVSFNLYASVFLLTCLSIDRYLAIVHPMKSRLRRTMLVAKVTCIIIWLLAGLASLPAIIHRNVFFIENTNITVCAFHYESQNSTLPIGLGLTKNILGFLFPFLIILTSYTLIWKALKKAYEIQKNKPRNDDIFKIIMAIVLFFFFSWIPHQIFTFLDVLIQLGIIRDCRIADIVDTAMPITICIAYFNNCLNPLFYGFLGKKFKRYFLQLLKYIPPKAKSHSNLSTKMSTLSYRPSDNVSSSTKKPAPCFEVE
# [4] = molecular target: Serine/threonine-protein phosphatase (Candida dubliniensis (strain CD36 / CBS 7987 / NCPF 3949 / NRRLY-17841) (Yeast), UniProt B9W6M3); assay: blockers of CaCl2-induced CDRE-lacZ signaling – S. cerevisiae, luminescence, secondary, dose response (AID 2388); type: functional, cell-based;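 note: yeast reporter cells carrying a calcineurin-responsive lacZ construct stimulated with calcium chloride; luminescent beta-galactosidase reporter signal in whole cells rather than isolated phosphatase activity; potency for inhibition where a drop in reporter signal means calcineurin blockade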
# [5] = molecular target: T1, Polyadenylate-binding protein 1; assay: MLLE binding blockers, Cy5 peptide tracer – biochemical, fluorescence polarization, Cy5-PAM2 peptide, secondary, miRNA deadenylation inhibitor project, dose response (AID 602260); type: functional; details: read-out: IC50_Mean
# [6] = molecular target: ATP-dependent molecular chaperone HSP82 (Candida albicans (strain WO-1) (Yeast), UniProt C4YTQ8); assay: steroid-induced GRE reporter decrease in yeast – S. cerevisiae, luminescence, Hsp90 inhibitor project, dose response (AID 2400); type: functional, cell-based;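 note: beta-galactosidase luminescence from glucocorticoid response element reporter as proxy for Hsp90 function; inhibitor potency where signal loss means Hsp90 inhibition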
# [7] = NIH-3T3 fibroblast cytotoxicity, dose response, cytotoxicity control, cell-based, fluorescence, Alamar Blue, secondary assay (AID 2327); type: functional;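 note: NIH-3T3 mouse fibroblasts cultured with fluconazole at 8 µg/mL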
# [8] = NIH3T3 cell viability loss – ATP luminescence, mouse fibroblasts, counter-screen, dose response (AID 2010); type: functional, cell-based;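 note: cells exposed to compound for about 90 hours before reading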
# BJ [9] = assay: cells; type: functional, cell-based; details: Homo sapiens
# BJ [10] = assay: BJ-TERT-LT-ST fibroblast viability loss – cell-based, RAS-independent, luminescence, dose response (AID 1935); type: functional; details: Homo sapiens;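 note: BJ fibroblasts immortalized with TERT plus LT and ST oncogenes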
# Streptococcus = assay: GAS UMAA2166 growth inhibition – luminescence, BacTiterGlo, counter-screen for streptokinase expression inhibitor project, dose response (AID 1915); type: functional, organism-based;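 note: potency for reduction of bacterial viability or growth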
# BJ [11] = assay: BJ-TERT fibroblast viability loss – cell-based, RAS-independent, luminescence, dose response (AID 1933); type: functional; details: Homo sapiens
# [12] = tested on: Streptococcus sp. 'group A'; assay: Streptococcus pyogenes SK(-)GAS viability under kanamycin – luminescence, BacTiterGlo, confirmation, counter-screen for streptokinase expression inhibitor project, dose response (AID 1900); type: functional, organism-based
# [13] = Trypanosoma cruzi growth suppression in host cells – NIH3T3 host cells, beta-gal luminescence, confirmation (AID 2044); type: functional, cell-based;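 note: intracellular parasites grown in NIH/3T3 mouse fibroblasts as host cells; luminescent beta-galactosidase reporter signal from transgenic T. cruzi replicating inside host cells; inhibitors lower the luminescence signal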
# Nonstructural protein 1 = Nonstructural protein 1 (Influenza A virus, UniProt Q194T2); type: functional, Influenza A virus (A/California/07/2009(H1N1))
# Vero [14] = assay: viability of Vero cells under compound – cytotoxicity control for flavivirus capping enzyme inhibitors (AID 588742); type: functional; details: Chlorocebus sabaeus
# Vero [15] = assay: cells; type: functional; details: Chlorocebus sabaeus
# [16] = DRD fibroblast viability loss – cell-based, non-viral oncogenic, luminescence, dose response (AID 1934); type: functional; details: Homo sapiens
# Hexokinase-1 = molecular target: T3, Hexokinase-1 (Homo sapiens, UniProt P19367); assay: SAR analysis of small molecule inhibitors of hexokinase domain containing I (HKDC1) in the hexokinase 1 selectivity assay. [Related pubchem assays (depositor defined):AID493160, AID493190]; type: functional
# T3 sequence (P19367 whole entry): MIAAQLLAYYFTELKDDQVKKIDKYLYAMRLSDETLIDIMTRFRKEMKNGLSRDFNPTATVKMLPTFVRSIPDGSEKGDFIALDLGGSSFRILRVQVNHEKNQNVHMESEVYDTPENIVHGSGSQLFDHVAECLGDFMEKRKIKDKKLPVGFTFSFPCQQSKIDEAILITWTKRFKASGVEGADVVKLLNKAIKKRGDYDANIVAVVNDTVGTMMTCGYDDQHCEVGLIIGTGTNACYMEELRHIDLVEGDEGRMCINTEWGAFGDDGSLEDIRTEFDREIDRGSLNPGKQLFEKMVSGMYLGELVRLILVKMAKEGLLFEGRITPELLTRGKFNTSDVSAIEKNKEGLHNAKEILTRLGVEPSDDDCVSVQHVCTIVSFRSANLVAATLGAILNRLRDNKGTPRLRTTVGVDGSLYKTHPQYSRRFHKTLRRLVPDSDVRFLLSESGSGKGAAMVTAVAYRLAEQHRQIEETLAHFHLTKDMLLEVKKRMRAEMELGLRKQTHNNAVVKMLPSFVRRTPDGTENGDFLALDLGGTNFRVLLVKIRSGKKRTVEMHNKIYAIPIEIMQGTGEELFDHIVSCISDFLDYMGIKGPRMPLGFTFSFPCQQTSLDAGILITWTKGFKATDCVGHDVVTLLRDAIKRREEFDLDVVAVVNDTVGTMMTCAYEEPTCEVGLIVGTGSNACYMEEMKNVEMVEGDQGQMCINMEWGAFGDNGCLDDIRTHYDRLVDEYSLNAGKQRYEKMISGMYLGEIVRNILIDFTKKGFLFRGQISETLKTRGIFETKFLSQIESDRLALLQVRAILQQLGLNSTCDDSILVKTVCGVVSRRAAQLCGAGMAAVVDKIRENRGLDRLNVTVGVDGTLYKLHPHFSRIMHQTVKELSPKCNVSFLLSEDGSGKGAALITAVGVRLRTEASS
# Hexokinase HKDC1 = molecular target: T4, Hexokinase HKDC1 (Homo sapiens, UniProt Q2TB90); assay: SAR analysis of small molecule inhibitors of hexokinase domain containing I (HKDC1). [Related pubchem assays (depositor defined):AID493160, AID493190]; type: functional
# T4 sequence (Q2TB90 whole entry): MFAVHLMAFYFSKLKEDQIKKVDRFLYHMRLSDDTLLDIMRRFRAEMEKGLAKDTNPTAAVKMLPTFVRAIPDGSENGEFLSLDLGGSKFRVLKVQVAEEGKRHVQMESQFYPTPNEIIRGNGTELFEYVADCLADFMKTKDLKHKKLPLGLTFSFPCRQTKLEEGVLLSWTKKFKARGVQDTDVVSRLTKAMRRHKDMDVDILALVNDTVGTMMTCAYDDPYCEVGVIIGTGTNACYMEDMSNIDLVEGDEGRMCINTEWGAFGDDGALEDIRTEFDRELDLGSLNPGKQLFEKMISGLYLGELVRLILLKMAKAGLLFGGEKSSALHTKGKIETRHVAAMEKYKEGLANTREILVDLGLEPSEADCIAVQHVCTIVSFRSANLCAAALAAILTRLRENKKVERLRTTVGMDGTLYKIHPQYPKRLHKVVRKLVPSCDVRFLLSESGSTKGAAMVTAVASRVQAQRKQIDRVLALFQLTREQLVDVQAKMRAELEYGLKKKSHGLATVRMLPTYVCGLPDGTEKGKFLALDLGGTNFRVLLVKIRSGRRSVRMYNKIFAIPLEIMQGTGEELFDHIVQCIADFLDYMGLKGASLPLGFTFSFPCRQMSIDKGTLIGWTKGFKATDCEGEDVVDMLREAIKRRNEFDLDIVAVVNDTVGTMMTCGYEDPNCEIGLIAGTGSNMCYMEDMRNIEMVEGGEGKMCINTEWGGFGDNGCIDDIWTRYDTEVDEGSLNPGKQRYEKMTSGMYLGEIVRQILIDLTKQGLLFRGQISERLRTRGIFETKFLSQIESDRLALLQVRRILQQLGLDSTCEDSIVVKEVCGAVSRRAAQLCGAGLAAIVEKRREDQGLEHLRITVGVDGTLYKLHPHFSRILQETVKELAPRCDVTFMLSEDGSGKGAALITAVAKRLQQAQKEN
# Trypsin = Trypsin (Sus scrofa, UniProt P00761); assay: trypsin protease activity blockade – biochemical, quenched peptide fluorescence, cherry-pick, selectivity assay for Rce1 protease inhibitor project, dose response (AID 488789)
# HEK293 = assay: EBV LMP1 TES2 canonical NF-kB signalling blockers – cell-based, HEK293, luciferase, cherry-pick, dose response (AID 588343); type: functional; details: Homo sapiens
# Protein skinhead-1 = molecular target: T5, Protein skinhead-1 (Caenorhabditis elegans, UniProt P34707); type: functional
# T5 sequence (P34707 whole entry): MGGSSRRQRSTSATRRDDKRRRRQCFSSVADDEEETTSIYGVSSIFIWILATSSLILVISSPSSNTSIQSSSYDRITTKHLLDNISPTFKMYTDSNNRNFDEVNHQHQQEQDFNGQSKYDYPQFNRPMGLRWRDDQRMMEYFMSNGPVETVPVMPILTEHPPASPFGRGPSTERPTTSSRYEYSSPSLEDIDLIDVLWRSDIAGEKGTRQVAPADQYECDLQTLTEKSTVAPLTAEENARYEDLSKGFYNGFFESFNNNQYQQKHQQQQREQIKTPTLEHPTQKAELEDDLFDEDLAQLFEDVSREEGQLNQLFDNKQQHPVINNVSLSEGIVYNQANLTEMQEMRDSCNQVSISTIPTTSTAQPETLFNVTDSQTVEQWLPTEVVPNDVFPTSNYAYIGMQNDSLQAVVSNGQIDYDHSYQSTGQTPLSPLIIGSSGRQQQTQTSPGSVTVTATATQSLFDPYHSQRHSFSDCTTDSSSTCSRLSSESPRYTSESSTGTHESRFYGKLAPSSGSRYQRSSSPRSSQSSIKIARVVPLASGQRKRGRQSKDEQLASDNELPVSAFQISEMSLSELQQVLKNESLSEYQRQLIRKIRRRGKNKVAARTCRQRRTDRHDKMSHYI
# [17] = molecular target: T6, Acyl-homoserine lactone acylase PvdQ (Pseudomonas aeruginosa (strain LESB58), UniProt Q9I194); assay: PvdQ acylase enzyme activity blockers – biochemical, fluorescence, plate reader and imaging, cherry-picks, dose response (AID 493231)
# T6 sequence (Q9I194 whole entry): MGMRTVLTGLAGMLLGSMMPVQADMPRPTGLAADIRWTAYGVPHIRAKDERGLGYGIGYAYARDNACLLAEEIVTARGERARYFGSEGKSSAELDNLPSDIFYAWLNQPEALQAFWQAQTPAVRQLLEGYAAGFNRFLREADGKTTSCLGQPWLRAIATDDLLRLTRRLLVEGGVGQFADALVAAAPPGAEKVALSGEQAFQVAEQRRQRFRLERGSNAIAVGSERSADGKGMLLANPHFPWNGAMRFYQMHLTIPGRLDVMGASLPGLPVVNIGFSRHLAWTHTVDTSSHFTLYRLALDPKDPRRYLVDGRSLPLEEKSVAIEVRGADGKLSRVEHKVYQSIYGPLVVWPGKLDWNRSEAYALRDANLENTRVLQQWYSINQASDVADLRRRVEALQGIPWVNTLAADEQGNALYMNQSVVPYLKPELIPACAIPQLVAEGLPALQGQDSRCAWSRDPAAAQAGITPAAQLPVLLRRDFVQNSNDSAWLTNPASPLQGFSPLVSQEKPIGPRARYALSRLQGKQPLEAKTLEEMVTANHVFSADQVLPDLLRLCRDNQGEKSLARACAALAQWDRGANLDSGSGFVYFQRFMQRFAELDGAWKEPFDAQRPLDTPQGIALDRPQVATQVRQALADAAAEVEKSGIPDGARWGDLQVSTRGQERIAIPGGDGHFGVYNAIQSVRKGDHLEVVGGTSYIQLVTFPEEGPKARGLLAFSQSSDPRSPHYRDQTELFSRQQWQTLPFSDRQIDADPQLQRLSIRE
# HeLa = assay: toxicity to human HeLa cells – cell-based, 48 h, plate reader, cherry-picks, cytotoxicity control, dose response (AID 504942); type: functional
# T1 sequence (P11940 whole entry, the tested form may be a part): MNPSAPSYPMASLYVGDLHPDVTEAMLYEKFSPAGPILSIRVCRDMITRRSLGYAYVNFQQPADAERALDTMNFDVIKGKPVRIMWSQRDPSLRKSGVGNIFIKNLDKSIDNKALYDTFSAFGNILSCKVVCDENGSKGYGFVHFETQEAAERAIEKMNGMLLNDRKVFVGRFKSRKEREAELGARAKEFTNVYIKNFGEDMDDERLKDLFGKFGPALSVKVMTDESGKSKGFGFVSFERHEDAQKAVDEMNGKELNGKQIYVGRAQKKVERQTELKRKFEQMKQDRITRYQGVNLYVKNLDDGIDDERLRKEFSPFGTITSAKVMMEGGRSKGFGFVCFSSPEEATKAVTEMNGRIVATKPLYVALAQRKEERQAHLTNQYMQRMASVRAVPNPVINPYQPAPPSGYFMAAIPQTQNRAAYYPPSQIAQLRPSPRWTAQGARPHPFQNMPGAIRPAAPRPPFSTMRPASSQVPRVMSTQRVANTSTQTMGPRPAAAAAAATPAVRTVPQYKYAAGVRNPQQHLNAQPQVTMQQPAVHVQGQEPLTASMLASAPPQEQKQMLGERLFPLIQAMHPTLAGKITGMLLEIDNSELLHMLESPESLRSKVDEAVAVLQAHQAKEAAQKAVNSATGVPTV
# ATP-dependent molecular chaperone HSP82, sequence (C4YTQ8 whole entry): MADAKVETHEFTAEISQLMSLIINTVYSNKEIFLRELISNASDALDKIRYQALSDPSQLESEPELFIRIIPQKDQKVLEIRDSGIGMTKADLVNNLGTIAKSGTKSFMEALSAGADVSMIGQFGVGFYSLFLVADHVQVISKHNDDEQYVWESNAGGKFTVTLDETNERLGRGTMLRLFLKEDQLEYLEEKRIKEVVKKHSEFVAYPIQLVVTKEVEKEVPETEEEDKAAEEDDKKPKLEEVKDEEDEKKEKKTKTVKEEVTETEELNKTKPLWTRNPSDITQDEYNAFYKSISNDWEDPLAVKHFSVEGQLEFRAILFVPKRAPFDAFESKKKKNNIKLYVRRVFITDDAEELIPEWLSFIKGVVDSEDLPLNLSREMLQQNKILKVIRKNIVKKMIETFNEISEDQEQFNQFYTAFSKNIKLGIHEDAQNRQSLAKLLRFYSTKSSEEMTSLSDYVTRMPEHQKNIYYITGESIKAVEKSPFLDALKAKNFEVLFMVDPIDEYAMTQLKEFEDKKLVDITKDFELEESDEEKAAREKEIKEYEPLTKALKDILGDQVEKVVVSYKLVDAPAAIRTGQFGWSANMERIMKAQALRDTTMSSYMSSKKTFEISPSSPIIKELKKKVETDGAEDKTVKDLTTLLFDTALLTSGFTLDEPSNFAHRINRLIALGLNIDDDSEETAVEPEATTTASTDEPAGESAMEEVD
# Serine/threonine-protein phosphatase, sequence (B9W6M3 whole entry): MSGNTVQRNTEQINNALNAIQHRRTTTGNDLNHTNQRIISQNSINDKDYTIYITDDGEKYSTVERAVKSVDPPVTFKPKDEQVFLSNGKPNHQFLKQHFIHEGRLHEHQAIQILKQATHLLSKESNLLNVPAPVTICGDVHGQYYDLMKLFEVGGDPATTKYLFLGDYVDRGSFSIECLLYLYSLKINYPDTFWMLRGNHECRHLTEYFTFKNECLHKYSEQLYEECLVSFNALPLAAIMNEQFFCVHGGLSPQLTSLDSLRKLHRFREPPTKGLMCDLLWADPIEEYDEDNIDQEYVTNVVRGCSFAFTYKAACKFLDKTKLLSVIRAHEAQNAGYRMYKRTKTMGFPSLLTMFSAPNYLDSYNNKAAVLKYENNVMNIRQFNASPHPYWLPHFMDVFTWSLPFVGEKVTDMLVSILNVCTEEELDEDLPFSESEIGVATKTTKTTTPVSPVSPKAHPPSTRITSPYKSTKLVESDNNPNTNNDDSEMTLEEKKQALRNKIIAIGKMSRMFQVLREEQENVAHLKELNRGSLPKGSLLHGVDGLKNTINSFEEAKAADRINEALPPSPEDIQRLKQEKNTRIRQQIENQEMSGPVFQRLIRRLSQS
# Nonstructural protein 1, sequence (Q194T2 whole entry): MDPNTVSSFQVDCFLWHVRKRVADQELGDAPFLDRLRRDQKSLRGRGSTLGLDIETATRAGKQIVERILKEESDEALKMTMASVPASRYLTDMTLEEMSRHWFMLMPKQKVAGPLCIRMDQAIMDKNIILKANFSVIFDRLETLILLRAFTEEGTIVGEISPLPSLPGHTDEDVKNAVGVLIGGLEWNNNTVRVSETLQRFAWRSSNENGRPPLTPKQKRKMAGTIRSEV
# Trypsin, sequence (P00761 whole entry): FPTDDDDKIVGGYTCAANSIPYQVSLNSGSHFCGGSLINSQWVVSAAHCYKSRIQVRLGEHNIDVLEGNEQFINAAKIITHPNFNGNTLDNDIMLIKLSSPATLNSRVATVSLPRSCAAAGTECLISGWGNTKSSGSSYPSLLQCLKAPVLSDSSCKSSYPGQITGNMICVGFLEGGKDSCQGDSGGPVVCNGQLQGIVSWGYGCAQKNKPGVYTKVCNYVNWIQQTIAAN
# Beta-galactosidase, sequence (Q8VNN2 whole entry): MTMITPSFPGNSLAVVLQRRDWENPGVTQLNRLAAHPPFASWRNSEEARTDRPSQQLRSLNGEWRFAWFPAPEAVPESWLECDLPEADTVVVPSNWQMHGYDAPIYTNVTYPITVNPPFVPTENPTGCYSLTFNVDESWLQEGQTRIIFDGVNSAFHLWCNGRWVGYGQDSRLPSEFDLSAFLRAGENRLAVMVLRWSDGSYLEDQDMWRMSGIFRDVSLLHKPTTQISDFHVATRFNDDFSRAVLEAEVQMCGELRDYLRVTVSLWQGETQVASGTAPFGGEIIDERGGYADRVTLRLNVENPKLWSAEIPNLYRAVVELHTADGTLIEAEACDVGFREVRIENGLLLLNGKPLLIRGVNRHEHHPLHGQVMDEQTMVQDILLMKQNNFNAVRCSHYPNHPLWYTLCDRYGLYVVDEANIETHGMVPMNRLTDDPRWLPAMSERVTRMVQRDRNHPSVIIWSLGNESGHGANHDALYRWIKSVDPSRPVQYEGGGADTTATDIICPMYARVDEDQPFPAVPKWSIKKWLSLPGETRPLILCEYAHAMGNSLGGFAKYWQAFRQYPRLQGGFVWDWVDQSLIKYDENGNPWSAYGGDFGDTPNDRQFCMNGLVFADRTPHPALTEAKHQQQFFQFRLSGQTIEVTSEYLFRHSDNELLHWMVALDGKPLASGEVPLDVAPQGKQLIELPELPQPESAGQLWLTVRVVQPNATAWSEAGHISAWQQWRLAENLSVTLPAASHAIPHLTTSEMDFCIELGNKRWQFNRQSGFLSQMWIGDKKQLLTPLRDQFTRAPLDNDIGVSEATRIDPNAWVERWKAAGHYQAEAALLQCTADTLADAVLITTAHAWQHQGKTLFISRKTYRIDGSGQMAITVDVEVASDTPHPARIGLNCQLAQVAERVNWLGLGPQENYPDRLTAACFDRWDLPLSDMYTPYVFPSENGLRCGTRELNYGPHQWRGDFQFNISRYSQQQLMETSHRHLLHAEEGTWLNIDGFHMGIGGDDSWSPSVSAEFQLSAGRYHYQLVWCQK
compound,measurement,setting,value
Cc1cc(O)ccc1NC(=S)NC(=O)c1cncc(Br)c1,IC50,[1],> 66 µM (inactive)
same,EC50,Beta-galactosidase,> 40 µM (inactive)
same,EC50,[2],1.05 µM (active)
same,IC50,[3],10.5 µM (active)
same,EC50,[4],> 180 µM (inactive)
same,IC50,[5],> 66 µM (inactive)
same,EC50,[6],> 160 µM (inactive)
same,EC50,[7],> 160 µM (inconclusive)
CCc1ccc2c(c1)C1(NN=C(c3ccccc3)S1)C(=O)N2 (stereo not given),EC50,[8],5.31 µM (active)
same,EC50,BJ [9],86.3 µM (active)
same,EC50,BJ [10],17.7 µM (inconclusive)
same,EC50,Streptococcus,1.84 µM (active)
same,EC50,BJ [11],13.7 µM (inconclusive)
same,IC50,[1],> 66 µM (inactive)
same,EC50,[12],278 nM (active)
same,IC50,[5],> 66 µM (inactive)
same,EC50,[13],524 nM (active)
same,IC50,Nonstructural protein 1,45.5 µM (active)
same,CC50,Vero [14],7.61 µM (active)
same,CC50,Vero [15],14.9 µM (active)
same,EC50,[16],49.4 µM (active)
Cc1ccc(Cn2c(/C=C/c3cccnc3)nc3ccccc3c2=O)cc1,IC50,Hexokinase-1,> 80 µM (inactive)
same,IC50,Hexokinase HKDC1,> 80 µM (inactive)
c1ccn2cc(-c3ccc4c(c3)OCCO4)nc2c1,AC50,Trypsin,6.17 µM (active)
same,AC50,HEK293,1.53 µM (active)
same,IC50,Protein skinhead-1,> 100 µM (inactive)
same,AC50,[17],4.31 µM (active)
same,AC50,HeLa,55.2 µM (active)
O=C(CSc1nc2ccccc2[nH]1)Nc1cccc(S(=O)(=O)N2CCOCC2)c1,IC50,Hexokinase-1,> 80 µM (inactive)
same,IC50,Hexokinase HKDC1,> 80 µM (inactive)
